Key:
redroot pigweed [1] = test: Test Example 4: herbicidal effect by soil treatment (Table 19, symbol N); assay type: in vivo, redroot pigweed (Amaranthus retroflexus); details: AAH 320 g/ha
Method in brief: (§1)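 Step 1: sow seeds in sterilized diluvial soil, cover ~1.5 cm. Step 2: spray diluted emulsion onto soil surface at predetermined rate. Step 3: greenhouse, 25–30° C, three weeks. Step 4: grade effect on each plant by earlier criteria.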

windgrass [2] = test: Test Example 5: herbicidal effect by foliage application, plastic box (Table 20, symbol L); assay type: in vivo, windgrass (Apera spica-venti); details: foliage application, AAH 320 g/ha, three weeks after application
Method in brief: (§2)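 Foliar spray test: emulsion formulation diluted in water to a set application rate, sprayed onto 14-day-old plants raised in diluvial soil at 25° C to 30° C under glass. Both herbicidal effect and crop effect rated visually three weeks later.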

green foxtail [3] = test: Test Example 4: herbicidal effect by soil treatment (Table 19, symbol G); assay type: in vivo, green foxtail (Setaria viridis); details: AAH 320 g/ha
Method in brief: as §1

lambsquarters [4] = test: Test Example 5: herbicidal effect by foliage application, plastic box (Table 20, symbol O); assay type: in vivo, lambsquarters (Chenopodium album); details: foliage application, AAH 320 g/ha, three weeks after application
Method in brief: as §2

windgrass [5] = test: Test Example 4: herbicidal effect by soil treatment (Table 19, symbol L); assay type: in vivo, windgrass (Apera spica-venti); details: AAH 320 g/ha
Description: (§3) [Test Example 4] Herbicidal Effect Test by Soil Treatment
(§4) Sterilized diluvial soil was placed in a plastic box having a length of 21 cm, a width of 13 cm, and a depth of 7 cm. The seeds of each of southern crabgrass, green foxtail, barnyard grass, wild oat, blackgrass, Italian ryegrass, windgrass, velvetleaf, redroot pigweed, lambsquarters, chickweed, false cleavers, persian speedwell, corn, soybean, rice, wheat, beet, and rapeseed were sowed in a spot-like manner and covered with the soil having a thickness of about 1.5 cm. Subsequently, the emulsion agent of the compound of the present invention prepared according to Formulation Example 2 was diluted with water so as to achieve a predetermined herbicide amount, and the diluted emulsion agent was uniformly applied to the surface of the soil with a small-sized spray. The plastic box was placed in a greenhouse at 25° C. to 30° C. for growth of the plants. Three weeks after the herbicide application, the effect of the herbicide on each plant was evaluated according to the criteria of Test Example 1.

redroot pigweed [6] = test: Test Example 5: herbicidal effect by foliage application, plastic box (Table 20, symbol N); assay type: in vivo, redroot pigweed (Amaranthus retroflexus); details: foliage application, AAH 320 g/ha, three weeks after application
Method in brief: as §2

southern crabgrass [7] = test: Test Example 4: herbicidal effect by soil treatment (Table 19, symbol F); assay type: in vivo, southern crabgrass (Digitaria ciliaris); details: AAH 320 g/ha
Description: as §3, §4

chickweed [8] = test: Test Example 5: herbicidal effect by foliage application, plastic box (Table 20, symbol P); assay type: in vivo, common chickweed (Stellaria media); details: foliage application, AAH 320 g/ha, three weeks after application
Method in brief: as §2

barnyard grass [9] = test: Test Example 4: herbicidal effect by soil treatment (Table 19, symbol H); assay type: in vivo, barnyard grass (Echinochloa crus-galli); details: AAH 320 g/ha
Description: as §3, §4

velvetleaf [10] = test: Test Example 4: herbicidal effect by soil treatment (Table 19, symbol M); assay type: in vivo, velvetleaf (Abutilon theophrasti); details: AAH 320 g/ha
Description: as §3, §4

chickweed [11] = test: Test Example 4: herbicidal effect by soil treatment (Table 19, symbol P); assay type: in vivo, common chickweed (Stellaria media); details: AAH 320 g/ha
Description: as §3, §4

persian speedwell = test: Test Example 5: herbicidal effect by foliage application, plastic box (Table 20, symbol R); assay type: in vivo, Persian speedwell (Veronica persica); details: foliage application, AAH 320 g/ha, three weeks after application
Method in brief: as §2

barnyard grass [12] = test: Test Example 5: herbicidal effect by foliage application, plastic box (Table 20, symbol H); assay type: in vivo, barnyard grass (Echinochloa crus-galli); details: foliage application, AAH 320 g/ha, three weeks after application
Method in brief: as §2

blackgrass [13] = test: Test Example 4: herbicidal effect by soil treatment (Table 19, symbol J); assay type: in vivo, blackgrass (Alopecurus myosuroides); details: AAH 320 g/ha
Description: as §3, §4

lambsquarters [14] = test: Test Example 4: herbicidal effect by soil treatment (Table 19, symbol O); assay type: in vivo, lambsquarters (Chenopodium album); details: AAH 320 g/ha
Description: as §3, §4

rice flat sedge = test: Test Example 3: herbicidal effect by foliage application, Wagner pot (Table 18, symbol E); assay type: in vivo, rice flat sedge (Cyperus iria); details: 320 g/ha
Method in brief: (§5)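 Plants were sown in alluvial soil held under 0.1–0.5 cm standing water and grown 14 days in a greenhouse at 25–30 °C. An emulsifiable formulation, water-diluted to the set dose, was then sprayed onto the foliage, and effects were scored three weeks later using previously defined criteria.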

Italian ryegrass [15] = test: Test Example 5: herbicidal effect by foliage application, plastic box (Table 20, symbol K); assay type: in vivo, Italian ryegrass (Lolium multiflorum); details: foliage application, AAH 320 g/ha, three weeks after application
Method in brief: as §2

southern crabgrass [16] = test: Test Example 5: herbicidal effect by foliage application, plastic box (Table 20, symbol F); assay type: in vivo, southern crabgrass (Digitaria ciliaris); details: foliage application, AAH 320 g/ha, three weeks after application
Method in brief: as §2

barnyard grass [17] = test: Test Example 3: herbicidal effect by foliage application, Wagner pot (Table 18, symbol H); assay type: in vivo, barnyard grass (Echinochloa crus-galli); details: 320 g/ha
Method in brief: as §5

blackgrass [18] = test: Test Example 5: herbicidal effect by foliage application, plastic box (Table 20, symbol J); assay type: in vivo, blackgrass (Alopecurus myosuroides); details: foliage application, AAH 320 g/ha, three weeks after application
Method in brief: as §2

green foxtail [19] = test: Test Example 5: herbicidal effect by foliage application, plastic box (Table 20, symbol G); assay type: in vivo, green foxtail (Setaria viridis); details: foliage application, AAH 320 g/ha, three weeks after application
Method in brief: as §2

wild oat [20] = test: Test Example 5: herbicidal effect by foliage application, plastic box (Table 20, symbol I); assay type: in vivo, wild oat (Avena fatua); details: foliage application, AAH 320 g/ha, three weeks after application
Method in brief: as §2

Chinese sprangletop = test: Test Example 3: herbicidal effect by foliage application, Wagner pot (Table 18, symbol D); assay type: in vivo, chinese sprangletop (Leptochloa chinensis); details: 320 g/ha
Method in brief: as §5

wild oat [21] = test: Test Example 4: herbicidal effect by soil treatment (Table 19, symbol I); assay type: in vivo, wild oat (Avena fatua); details: AAH 320 g/ha
Description: as §3, §4

velvetleaf [22] = test: Test Example 5: herbicidal effect by foliage application, plastic box (Table 20, symbol M); assay type: in vivo, velvetleaf (Abutilon theophrasti); details: foliage application, AAH 320 g/ha, three weeks after application
Method in brief: as §2

Italian ryegrass [23] = test: Test Example 4: herbicidal effect by soil treatment (Table 19, symbol K); assay type: in vivo, Italian ryegrass (Lolium multiflorum); details: AAH 320 g/ha
Description: as §3, §4

In the case of `Cc1nn(C)c(=O)c(-c2c(-c3ccc([Si](C)(C)C)cc3)sc3ccccc23)c1O` [1-153], the “N: redroot pigweed, herbicidal effect rating” value (redroot pigweed [1]) is reported as 3 (Herbicidal rate of 40% or more and less than 70%), the “L: windgrass, herbicidal effect” value (windgrass [2]) is reported as 0 (Herbicidal rate of 5% or less (almost no effect)) and the “G: green foxtail, herbicidal effect rating” value (green foxtail [3]) is reported as 3 (Herbicidal rate of 40% or more and less than 70%). For the same compound, the “O: lambsquarters, herbicidal effect” value (lambsquarters [4]) was 4 (Herbicidal rate of 70% or more and less than 90%), the “L: windgrass, herbicidal effect rating” value (windgrass [5]) was 0 (Herbicidal rate of 5% or less (almost no effect)) and the “N: redroot pigweed, herbicidal effect” value (redroot pigweed [6]) was 5 (Herbicidal rate of 90% or more (almost completely withered)). The “F: southern crabgrass, herbicidal effect rating” value (southern crabgrass [7]) was 2 (Herbicidal rate of 20% or more and less than 40%), the “P: chickweed, herbicidal effect” value (chickweed [8]) was 0 (Herbicidal rate of 5% or less (almost no effect)) and the “H: barnyard grass, herbicidal effect rating” value (barnyard grass [9]) was 0 (Herbicidal rate of 5% or less (almost no effect)). The “M: velvetleaf, herbicidal effect rating” value (velvetleaf [10]) was 0 (Herbicidal rate of 5% or less (almost no effect)), the “P: chickweed, herbicidal effect rating” value (chickweed [11]) was 0 (Herbicidal rate of 5% or less (almost no effect)) and the “R: persian speedwell, herbicidal effect” value (persian speedwell) was 5 (Herbicidal rate of 90% or more (almost completely withered)). The “H: barnyard grass, herbicidal effect” value (barnyard grass [12]) was 0 (Herbicidal rate of 5% or less (almost no effect)), the “J: blackgrass, herbicidal effect rating” value (blackgrass [13]) was 0 (Herbicidal rate of 5% or less (almost no effect)) and the “O: lambsquarters, herbicidal effect rating” value (lambsquarters [14]) was 5 (Herbicidal rate of 90% or more (almost completely withered)). For the same compound, the “herbicidal effect on E (rice flat sedge), rating 0-5” value (rice flat sedge) was 3 (Herbicidal rate of 40% or more and less than 70%), the “K: Italian ryegrass, herbicidal effect” value (Italian ryegrass [15]) was 0 (Herbicidal rate of 5% or less (almost no effect)) and the “F: southern crabgrass, herbicidal effect” value (southern crabgrass [16]) was 0 (Herbicidal rate of 5% or less (almost no effect)). The “herbicidal effect on H (barnyard grass), rating 0-5” value (barnyard grass [17]) was 4 (Herbicidal rate of 70% or more and less than 90%), the “J: blackgrass, herbicidal effect” value (blackgrass [18]) was 0 (Herbicidal rate of 5% or less (almost no effect)) and the “G: green foxtail, herbicidal effect” value (green foxtail [19]) was 3 (Herbicidal rate of 40% or more and less than 70%). The “I: wild oat, herbicidal effect” value (wild oat [20]) was 0 (Herbicidal rate of 5% or less (almost no effect)), the “herbicidal effect on D (Chinese sprangletop), rating 0-5” value (Chinese sprangletop) was 2 (Herbicidal rate of 20% or more and less than 40%) and the “I: wild oat, herbicidal effect rating” value (wild oat [21]) was 0 (Herbicidal rate of 5% or less (almost no effect)). For the same compound, the “M: velvetleaf, herbicidal effect” value (velvetleaf [22]) was 2 (Herbicidal rate of 20% or more and less than 40%) and the “K: Italian ryegrass, herbicidal effect rating” value (Italian ryegrass [23]) was 0 (Herbicidal rate of 5% or less (almost no effect)).

Source: patent US20230085307A1, “PYRIDAZINONE COMPOUND AND HERBICIDE” (NISSAN CHEMICAL CORPORATION, priority 2019, published 2023)
